Source: US8614218B2, “Fused bicyclic pyrimidines” (Bayer Intellectual Property GmbH, priority 2007, dated 2013)

System: phospho-Akt (Ser473)
Assay: Cellular PI3K/Akt pathway assay (phospho-Akt ELISA)
Assay type: cell-based
Conditions: Homo sapiens, MCF7 cells, β-Heregulin stimulated, 48 h incubation
Description: Cellular PI3K/Akt Pathway Assay
In order to study the cellular activity of the compounds according to the present invention, an Enzyme Linked Immunosorbent Assay (ELISA)-based assay has been used specific phospho-AKT. The assay is based on a Sandwich ELISA kit (PathScan™ Phospho-Akt1 (Ser473); Cell Signaling, USA; #7160). The ELISA Kit detects endogenous levels of phosphorylated Akt protein. A phospho-Akt (Ser473) antibody (Cell Signaling, USA; #9271) has been coated onto the microwells. After incubation with cell lysates, the coated antibody captures the phosphorylated Akt protein. Following extensive washing, Akt1 monoclonal antibody (Cell Signaling, USA; #2967) is added to detect the captured phospho-Akt1 protein. HRP-linked anti-mouse antibody (HRP: horseradish peroxidase; Cell Signaling, USA; #7076) is then used to recognize the bound detection antibody. HRP substrate (=3,3′,5,5′-tetramethylbenzidine (TMB); Cell Signaling, USA; #7160) is added to develop colour. The magnitude of optical density for this developed color is proportional to the quantity of phosphorylated Akt protein.
MCF7 cells (ATCC HTB-22) are seeded into 96 well fate bottom plates at a density of 10000 cells/well. 24 hours after seeding, the cells are serum starved using low-serum medium (IMEM media including 0.1% charcoal treated FCS (FCS: fetal calf serum)). After 24 hours 1 μl each of the compound dilutions (test compounds were dissolved as 10 mM solutions in dimethylsulfoxide (DMSO) and subsequently diluted) are added into each well of the 96 well plates and incubated for 48 h at 37° C. in a humidified atmosphere containing 5% CO2. To stimulate Akt phosphorylation, β-Heregulin (20 ng/ml β-HRG) is added in parallel to the compounds. Wells containing unstimulated control cells (no β-Heregulin stimulation) are incubated with or without the diluted compound. Wells containing untreated control cells (no compound) are filled with medium containing 0.5% v:v DMSO and are or are not stimulated with β-Heregulin.
Cells are harvested and lysed with brief sonification in 1× cell lysis buffer (20 mM Tris (pH7.5), 150 mM NaCl, 1 mM ethylene diaminetetraacetate (EDTA), 1 mM ethylene glycolbis(2-aminoethyl)-N,N,N′,N′-tetraacetic acid (EGTA), 1 vol % Triton X-100, 2.5 mM sodium pyrophosphate, 1 mM β-glycerolphosphate, 1 mM Na3VO4, 1 μg/ml leupeptin). The lysate is centrifuged for 10 min. at 4° C. and the supernatant is transferred to a new tube. 100 μl of sample diluent (0.1 vol % Tween-20, 0.1 vol % sodium azide in phosphate buffered saline (PBS)) are added to a microcentrifuge tube and 100 μl of cell lysate are transferred into the tube and vortexed. 100 μl of each diluted cell lysate are added to the appropriate ELISA well, and incubated overnight at 4° C. The plates are washed 4 times with 1× wash buffer (1 vol % tween-20, 0.33 vol % thymol, in PBS). Next 100 μl of detection antibody (Akt1 (2H10) monoclonal detection antibody; Cell Signaling, USA; #2967) are added to each well and incubation continued for 1 h at 37° C. The washing procedure is repeated between each step. 100 μl of secondary antibody (anti-mouse IgG HRP-linked antibody; Cell Signaling, USA; #7076) are added to each well and incubated for 30 min. at 37° C. Than, 100 μl of TMB substrate (0.05% 3,3′,5,5′ tetramethylbenzidine, 0.1% hydrogen peroxide, complex polypeptides in a buffered solution; Cell Signaling, USA; #7160) are added to each well and incubated for 30 min. at 25° C. Finally 100 μl of STOP solution (0.05 vol % α and β unsaturated carbonyl compound) are added to each well and the plate are shaked gently. The absorbance is measured at λ=450 nm (Wallac Victor2; Perkin Elmer, USA) within 30 min. after adding the STOP solution. The analysis of the data is performed using a statistical program (Excel; Microsoft, USA). Preferred compounds show an inhibitory activity towards Akt phosphorylation below 10 μM.

IC50 [nM]	SMILES
< 1000	CC(c1ccc(-c2nc3nccn3cc2-c2ccccc2)cc1)N1CCC(c2n[nH]c(-c3ccccn3)n2)CC1 (racemic) [Example 23, 6-phenyl-7-(4-{1-[4-(5-pyridin-2-yl-1H-1,2,4-triazol-3-yl)piperidin-1-yl]ethyl}phenyl)imidazo[1,2-a]pyrimidine]
< 1000	Fc1cnc2nc(-c3ccc(CN4CCC(c5n[nH]c(-c6cnccn6)n5)CC4)cc3)c(-c3ccccc3)cn12 [Example 24, 3-fluoro-6-phenyl-7-(4-{[4-(5-pyrazin-2-yl-1,2,4-triazol-3-yl)piperidin-1-yl]methyl}phenyl)imidazo[1,2-a]pyrimidine]
< 1000	Fc1cnc2nc(-c3ccc(CN4CCC(c5n[nH]c(-c6ncccn6)n5)CC4)cc3)c(-c3ccccc3)cn12 [Example 25, 3-fluoro-6-phenyl-7-(4-{[4-(5-pyrimidin-2-yl-1H-1,2,4-triazol-3-yl)piperidin-1-yl]methyl}phenyl)imidazo[1,2-a]pyrimidine]
< 1000	Clc1cnn2cc(-c3ccccc3)c(-c3ccc(CN4CCC(c5n[nH]c(-c6ccccn6)n5)CC4)cc3)nc12 [Example 30, 3-Chloro-6-phenyl-5-(4-{[4-(5-pyridin-2-yl-1H-1,2,4-triazol-3-yl)piperidin-1-yl]methyl}phenyl)pyrazolo[1,5-a]pyrimidine]
< 1000	Brc1cnn2cc(-c3ccccc3)c(-c3ccc(CN4CCC(c5n[nH]c(-c6ccccn6)n5)CC4)cc3)nc12 [Example 31, 3-Bromo-6-phenyl-5-(4-{[4-(5-pyridin-2-yl-1H-1,2,4-triazol-3-yl)piperidin-1-yl]methyl}phenyl)pyrazolo[1,5-a]pyrimidine]
< 1000	N#Cc1cnn2cc(-c3ccccc3)c(-c3ccc(CN4CCC(c5n[nH]c(-c6ccccn6)n5)CC4)cc3)nc12 [Example 32, 6-Phenyl-5-(4-{[4-(5-pyridin-2-yl-1H-1,2,4-triazol-3-yl)piperidin-1-yl]methyl}phenyl)pyrazolo[1,5-a]pyrimidine-3-carbonitrile]
< 1000	C#Cc1cnn2cc(-c3ccccc3)c(-c3ccc(CN4CCC(c5n[nH]c(-c6ccccn6)n5)CC4)cc3)nc12 [Example 33, 3-Ethynyl-6-phenyl-5-(4-{[4-(5-pyridin-2-yl-1H-1,2,4-triazol-3-yl)piperidin-1-yl]methyl}phenyl)pyrazolo[1,5-a]pyrimidine]
< 1000	CCc1cnn2cc(-c3ccccc3)c(-c3ccc(CN4CCC(c5n[nH]c(-c6ccccn6)n5)CC4)cc3)nc12 [Example 34, 3-Ethyl-6-phenyl-5-(4-{[4-(5-pyridin-2-yl-1H-1,2,4-triazol-3-yl)piperidin-1-yl]methyl}phenyl)pyrazolo[1,5-a]pyrimidine]
< 1000	Cc1ccnc(-c2nc(C3CCN(Cc4ccc(-c5nc6nccn6cc5-c5ccccc5)cc4)CC3)n[nH]2)c1 [Example 35, 7-[4-({4-[5-(4-Methylpyridin-2-yl)-1H-1,2,4-triazol-3-yl]piperidin-1-yl}methyl)phenyl]-6-phenylimidazo[1,2-a]pyrimidine]
< 1000	Cc1cccc(-c2nc(C3CCN(Cc4ccc(-c5nc6nccn6cc5-c5ccccc5)cc4)CC3)n[nH]2)n1 [Example 36, 7-[4-({4-[5-(6-Methylpyridin-2-yl)-1H-1,2,4-triazol-3-yl]piperidin-1-yl}methyl)phenyl]-6-phenylimidazo[1,2-a]pyrimidine]
< 1000	CCc1nc2nc(-c3ccc(CN4CCC(c5n[nH]c(-c6ccccn6)n5)CC4)cc3)c(-c3ccccc3)cn2n1 [Example 40, 2-Ethyl-6-phenyl-5-(4-{[4-(5-pyridin-2-yl-1H-1,2,4-triazol-3-yl)piperidin-1-yl]methyl}phenyl)[1,2,4]triazolo[1,5-a]pyrimidine]
